Data published in patent US10336701B2, “Pyridin-2-one derivatives of formula (II) useful as EP3 receptor antagonists” (Janssen Pharmaceutica NV, priority 2017, dated 2019).

Experiments:
EP3 receptor [1] = biological target: T1, EP3 receptor (Homo sapiens, UniProt P43115); assay: [3H]-PGE2 binding assay (EP3 competition binding); conditions: read-out: [3H]-PGE2 Binding Ki
T1 construct: purchased Millipore HTS092M
T1 sequence (P43115 1-390): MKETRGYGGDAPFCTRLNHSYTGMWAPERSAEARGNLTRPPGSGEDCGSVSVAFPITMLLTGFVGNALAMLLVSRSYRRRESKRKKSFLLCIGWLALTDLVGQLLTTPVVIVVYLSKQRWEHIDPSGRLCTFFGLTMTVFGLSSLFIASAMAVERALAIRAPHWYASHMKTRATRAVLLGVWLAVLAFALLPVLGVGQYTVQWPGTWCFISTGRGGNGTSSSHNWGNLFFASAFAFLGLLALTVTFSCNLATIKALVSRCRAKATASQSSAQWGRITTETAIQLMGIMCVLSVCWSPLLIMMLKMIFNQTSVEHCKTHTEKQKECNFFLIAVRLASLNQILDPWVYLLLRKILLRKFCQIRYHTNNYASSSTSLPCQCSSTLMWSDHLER
Procedure, shortened: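 Scintillation-bead competition binding with EP3 membranes (2 μg/well), 2 nM [3H]-PGE2, 0.1% DMSO, in 50 mM Tris, 10 mM MgCl2, 1 mM EDTA, pH 7.4.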

EP3 receptor [2] = biological target: T1, EP3 receptor; assay: CHO cell cAMP assay (forskolin and sulprostone stimulated, HTRF); type: cell-based; conditions: CHO cells; sulprostone 700 nM (EC80) and FSK 2 μM (EC70), 37° C. for 30 minutes; read-out: CHO_cAMP IC50

Compound	Ki (EP3 receptor [1]) [nM]	IC50 (EP3 receptor [2]) [nM]
Cc1cc(C(CC2OC(=O)NC2=O)C(C)C)c(=O)[nH]c1-c1ccc2cccc(F)c2c1 (centres unmarked) [Compound #112]	57	212
CCn1ncc2c(F)cc(-c3ccc(C(/C=C4\CCNC4=O)(CC)CC)c(=O)[nH]3)cc21 [compound 13, (E)-6-(1-ethyl-4-fluoro-1H-indazol-6-yl)-3-(3-((2-oxopyrrolidin-3-ylidene)methyl)pentan-3-yl)pyridin-2(1H)-one]	3	22
CCn1ncc2c(F)cc(-c3ccc(C(CC)(CC)c4noc(=O)[nH]4)c(=O)[nH]3)cc21 [Compound #4]	88	1800
CCN1CCOc2ccc(-c3ccc(C(CC)(CC)CC4OC(=O)NC4=O)c(=O)[nH]3)cc21 (centres unmarked) [compound 44, 5-(2-ethyl-2-(6-(4-ethyl-3,4-dihydro-2H-benzo[b][1,4]oxazin-6-yl)-2-oxo-1,2-dihydropyridin-3-yl)butyl)oxazolidine-2,4-dione]	93	505
CCn1ncc2c(F)cc(-c3ccc(C(CC)(CC)c4nnn[nH]4)c(=O)[nH]3)cc21 [Compound #3, 3-(3-(1H-tetrazol-5-yl)pentan-3-yl)-6-(1-ethyl-4-fluoro-1H-indazol-6-yl)pyridin-2(1H)-one]	17	349
CC(C)/C(Cc1ccc(-c2ccc3cccc(F)c3c2)[nH]c1=O)=C1/OC(=O)NC1=O [Compound #306, (E)-5-(1-(6-(8-fluoronaphthalen-2-yl)-2-oxo-1,2-dihydropyridin-3-yl)-3-methylbutan-2-ylidene)oxazolidine-2,4-dione]	54	111
CC(C)C(/C=C1\OC(=O)NC1=O)c1ccc(-c2cc(Cl)c3c(c2)ncn3C)[nH]c1=O (centres unmarked) [compound 97, (Z)-5-(2-(6-(7-chloro-1-methyl-1H-benzo[d]imidazol-5-yl)-2-oxo-1,2-dihydropyridin-3-yl)-3-methylbutylidene)oxazolidine-2,4-dione]	179	666
CCn1ncc2c(F)cc(-c3ccc(C(CC4OC(=O)NC4=O)C(C)C)c(=O)[nH]3)cc21 (centres unmarked) [compound 87, 5-(2-(6-(1-ethyl-4-fluoro-1H-indazol-6-yl)-2-oxo-1,2-dihydropyridin-3-yl)-3-methylbutyl)oxazoli-dine-2,4-dione]	32	149
CCn1ncc2c(F)cc(-c3ccc(C4CCC5(CCCNC5=O)CC4)c(=O)[nH]3)cc21 (centres unmarked) [compound 196, 9-(6-(1-ethyl-4-fluoro-1H-indazol-6-yl)-2-oxo-1,2-dihydropyridin-3-yl)-2-azaspiro[5.5]undecan-1-one]	8	87
CC(C)/C(=C1/OC(=O)NC1=O)c1ccc(-c2ccc3cccc(F)c3c2)[nH]c1=O [Compound #303, (Z)-5-(1-(6-(8-fluoronaphthalen-2-yl)-2-oxo-1,2-dihydropyridin-3-yl)-2-methylpropylidene)oxazolidine-2,4-dione]	14	1280
CCn1ncc2c(F)cc(-c3[nH]c(=O)c(C(/C=C4\OC(=O)NC4=O)C(C)C)cc3C)cc21 (centres unmarked) [compound 111, (Z)-5-(2-(6-(1-ethyl-4-fluoro-1H-indazol-6-yl)-5-methyl-2-oxo-1,2-dihydropyridin-3-yl)-3-methylbutylidene)oxazolidine-2,4-dione]	162	585
CCn1ncc2c(F)cc(-c3ccc(C(CC)(CC)c4ncco4)c(=O)[nH]3)cc21 [Compound #30, 6-(1-ethyl-4-fluoro-1H-indazol-6-yl)-3-(3-(oxazol-2-yl)pentan-3-yl)pyridin-2(1H)-one]	2	12
CCn1cc2c(C)cc(-c3ccc(C(CC4OC(=O)NC4=O)C(C)C)c(=O)[nH]3)cc2n1 (centres unmarked) [compound 86, 5-(2-(6-(2-ethyl-4-methyl-2H-indazol-6-yl)-2-oxo-1,2-dihydropyridin-3-yl)-3-methylbutyl)oxazolidine-2,4-dione]	114	916
N#CC1(OC(N)=O)CCCC(c2ccc(-c3ccc4ccccc4c3)[nH]c2=O)C1 (centres unmarked) [compound 185, 1-cyano-3-(6-(naphthalen-2-yl)-2-oxo-1,2-dihydropyridin-3-yl)cyclohexyl carbamate]	31	314
CCN1CCOc2ccc(-c3ccc(C(C(C)C)N4CCSCC4)c(=O)[nH]3)cc21 (centres unmarked) [Compound #164, 6-(4-ethyl-3,4-dihydro-2H-benzo[b][1,4]oxazin-6-yl)-3-(2-methyl-1-thiomorpholinopropyl)pyridin-2(1H)-one]	26	485
CCn1cc2ccc(-c3ccc(C(CC4OC(=O)NC4=O)C(C)C)c(=O)[nH]3)cc2n1 (centres unmarked) [compound 120, 5-(2-(6-(2-ethyl-2H-indazol-6-yl)-2-oxo-1,2-dihydropyridin-3-yl)-3-methylbutyl)oxazolidine-2,4-dione]	> 10000	> 20000
CCC(CC)(CC1OC(=O)NC1=O)c1ccc(-c2ccc3cccc(F)c3c2)[nH]c1=O (centres unmarked) [compound 9, 5-(2-ethyl-2-(6-(8-fluoronaphthalen-2-yl)-2-oxo-1,2-dihydropyridin-3-yl)butyl)oxazolidine-2,4-dione]	23	108
CC(C)C(C(=O)NC1CN(C)C1)c1ccc(-c2ccc3cccc(F)c3c2)[nH]c1=O (centres unmarked) [compound 182, 2-(6-(8-fluoronaphthalen-2-yl)-2-oxo-1,2-dihydropyridin-3-yl)-3-methyl-N-(1-methylazetidin-3-yl)butanamide]	41	638
O=C1NC(=O)C(CC2(c3ccc(-c4ccc5cccc(F)c5c4)[nH]c3=O)CCCC2)O1 (centres unmarked) [compound 7, 5-((1-(6-(8-fluoronaphthalen-2-yl)-2-oxo-1,2-dihydropyridin-3-yl)cyclopentyl)methyl) oxazolidine-2,4-dione]	39	149
O=C1NC(=O)/C(=C/C(c2ccc(-c3ccc4cccc(F)c4c3)[nH]c2=O)C2CCCCC2)O1 (centres unmarked) [compound 134, (Z)-5-(2-cyclohexyl-2-(6-(8-fluoronaphthalen-2-yl)-2-oxo-1,2-dihydropyridin-3-yl)ethylidene)oxazolidine-2,4-dione]	4	8
Cc1cc(C(c2ncc[nH]2)C(C)C)c(=O)[nH]c1-c1ccc2cccc(F)c2c1 (centres unmarked) [compound 82, 3-(1-(1H-imidazol-2-yl)-2-methylpropyl)-6-(8-fluoronaphthalen-2-yl)-5-methylpyridin-2(1H)-one]	23	137

Other lines, results leading:

Ki (EP3 receptor [1]) [nM]	IC50 (EP3 receptor [2]) [nM]	Compound
496	3580	CC1=NC(C)(c2ccc(-c3ccc4ccccc4c3)[nH]c2=O)C(=O)N1 (centres unmarked) [compound 223, 3-(2,4-dimethyl-5-oxo-4,5-dihydro-1H-imidazol-4-yl)-6-(naphthalen-2-yl)-1,2-dihydropyridin-2-one]
34	249	CC(C)C(c1ccc(-c2ccc3cccc(F)c3c2)[nH]c1=O)N(C)C(N)=O (centres unmarked) [compound 265, 1-(1-(6-(8-fluoronaphthalen-2-yl)-2-oxo-1,2-dihydropyridin-3-yl)-2-methylpropyl)-1-methylurea]
51	243	CC(C)C(C(=O)NS(C)(=O)=O)c1ccc(-c2ccc3ccccc3c2)[nH]c1=O (centres unmarked) [compound 221, 3-methyl-N-(methylsulfonyl)-2-(6-(naphthalen-2-yl)-2-oxo-1,2-dihydropyridin-3-yl)butanamide]
37	527	CCOC(=O)C(=C1CCCCC1)c1ccc(-c2ccc3ccccc3c2)[nH]c1=O [compound 281, ethyl 2-cyclohexylidene-2-(6-(naphthalen-2-yl)-2-oxo-1,2-dihydropyridin-3-yl)acetate]
3	19	CC(C)C1(c2ccc(-c3ccc4cccc(F)c4c3)[nH]c2=O)CNC(NC#N)=N1 (centres unmarked) [compound 291, N-(4-(6-(8-fluoronaphthalen-2-yl)-2-oxo-1,2-dihydropyridin-3-yl)-4-isopropyl-4,5-dihydro-1H-imidazol-2-yl)cyanamide]
2	23	CONC(=O)CC(c1ccc(-c2ccc3cccc(F)c3c2)[nH]c1=O)C(C)C (centres unmarked) [compound 257, 3-(6-(8-fluoronaphthalen-2-yl)-2-oxo-1,2-dihydropyridin-3-yl)-N-methoxy-4-methylpentanamide]
> 10000	> 20000	CCn1ncc2c(F)cc(-c3ccc(C4CN(S(=O)(=O)C(C)C)C4)c(=O)[nH]3)cc21 [compound 214, 6-(1-ethyl-4-fluoro-1H-indazol-6-yl)-3-(1-(isopropylsulfonyl)azetidin-3-yl)pyridin-2(1H)-one]
49	1140	CC(C)C(F)(C(N)=O)c1ccc(-c2ccc3ccccc3c2)[nH]c1=O (centres unmarked) [compound 217, 2-fluoro-3-methyl-2-(6-(naphthalen-2-yl)-2-oxo-1,2-dihydropyridin-3-yl)butanamide]
6	56	CC(C)C1(c2ccc(-c3ccc4cccc(F)c4c3)[nH]c2=O)NC(=S)NC1=O (centres unmarked) [compound 294, 6-(8-fluoronaphthalen-2-yl)-3-(4-isopropyl-5-oxo-2-thioxoimidazolidin-4-yl)pyridin-2(1H)-one]
8	194	CCn1ncc2c(F)cc(-c3ccc(C4=CCN(S(=O)(=O)C(C)C)C4)c(=O)[nH]3)cc21 [compound 297, 6-(1-ethyl-4-fluoro-1H-indazol-6-yl)-3-(1-(isopropylsulfonyl)-2,5-dihydro-1H-pyrrol-3-yl)pyridin-2(1H)-one]
